Assays:
[1] = target: T1, Nuclear receptor ROR-gamma (Homo sapiens, UniProt P51449); experiment: Inverse agonist activity at Gal4-fused RORgamma LBD (unknown origin) expressed in 293T cells measured after 24 hrs by dual-luciferase reporter gene assay; format: cell-based
T1 sequence (P51449 whole entry): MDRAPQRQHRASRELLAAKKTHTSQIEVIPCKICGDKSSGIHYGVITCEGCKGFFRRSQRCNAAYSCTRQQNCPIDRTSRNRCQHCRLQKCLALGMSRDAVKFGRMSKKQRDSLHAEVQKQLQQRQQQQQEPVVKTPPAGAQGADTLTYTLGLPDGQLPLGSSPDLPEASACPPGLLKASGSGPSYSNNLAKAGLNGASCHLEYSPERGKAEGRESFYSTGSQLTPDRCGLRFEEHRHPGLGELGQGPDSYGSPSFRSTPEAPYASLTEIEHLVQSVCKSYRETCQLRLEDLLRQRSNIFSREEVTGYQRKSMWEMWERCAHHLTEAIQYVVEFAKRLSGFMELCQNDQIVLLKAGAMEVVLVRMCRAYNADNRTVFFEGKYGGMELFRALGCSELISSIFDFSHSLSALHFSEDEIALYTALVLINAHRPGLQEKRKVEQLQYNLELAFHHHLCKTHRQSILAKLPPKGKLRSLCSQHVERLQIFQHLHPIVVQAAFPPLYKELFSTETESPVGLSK

[2] = target: T2, Nuclear receptor ROR-gamma (Homo sapiens) (UniProt P51449)
T2 sequence (whole entry): T1 sequence (P51449 whole entry)

[3] = target: T3, Oxysterols receptor LXR-alpha (Homo sapiens, UniProt Q13133)
T3 sequence (Q13133 whole entry): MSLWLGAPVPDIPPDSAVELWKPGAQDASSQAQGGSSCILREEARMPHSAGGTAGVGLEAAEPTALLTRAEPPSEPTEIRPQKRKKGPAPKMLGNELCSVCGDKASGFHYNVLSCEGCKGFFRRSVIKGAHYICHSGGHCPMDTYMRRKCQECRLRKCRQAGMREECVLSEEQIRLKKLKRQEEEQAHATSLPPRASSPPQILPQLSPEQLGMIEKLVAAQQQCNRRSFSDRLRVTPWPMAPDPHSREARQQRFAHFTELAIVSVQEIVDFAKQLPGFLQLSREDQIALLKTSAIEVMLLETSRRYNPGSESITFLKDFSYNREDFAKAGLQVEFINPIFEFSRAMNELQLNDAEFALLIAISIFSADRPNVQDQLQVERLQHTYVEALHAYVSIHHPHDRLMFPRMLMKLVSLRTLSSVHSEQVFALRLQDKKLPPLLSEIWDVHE

Bile acid receptor [4] = target: T4, Bile acid receptor (Homo sapiens, UniProt Q96RI1)
T4 sequence (Q96RI1 whole entry): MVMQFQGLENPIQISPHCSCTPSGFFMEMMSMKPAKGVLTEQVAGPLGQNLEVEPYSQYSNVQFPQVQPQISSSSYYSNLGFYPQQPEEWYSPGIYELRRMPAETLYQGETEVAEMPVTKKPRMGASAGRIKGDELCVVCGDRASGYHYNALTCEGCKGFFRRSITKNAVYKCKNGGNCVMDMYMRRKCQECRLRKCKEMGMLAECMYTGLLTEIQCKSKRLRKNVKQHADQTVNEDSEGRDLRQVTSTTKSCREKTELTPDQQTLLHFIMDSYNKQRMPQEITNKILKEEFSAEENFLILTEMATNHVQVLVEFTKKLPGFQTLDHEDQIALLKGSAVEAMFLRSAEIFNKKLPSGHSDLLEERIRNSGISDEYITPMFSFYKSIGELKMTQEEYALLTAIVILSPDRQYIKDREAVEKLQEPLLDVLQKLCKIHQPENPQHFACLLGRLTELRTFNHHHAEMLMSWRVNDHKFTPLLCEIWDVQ

[5] = target: T5, Nuclear receptor ROR-alpha (Homo sapiens, UniProt P35398)
T5 sequence (P35398 whole entry): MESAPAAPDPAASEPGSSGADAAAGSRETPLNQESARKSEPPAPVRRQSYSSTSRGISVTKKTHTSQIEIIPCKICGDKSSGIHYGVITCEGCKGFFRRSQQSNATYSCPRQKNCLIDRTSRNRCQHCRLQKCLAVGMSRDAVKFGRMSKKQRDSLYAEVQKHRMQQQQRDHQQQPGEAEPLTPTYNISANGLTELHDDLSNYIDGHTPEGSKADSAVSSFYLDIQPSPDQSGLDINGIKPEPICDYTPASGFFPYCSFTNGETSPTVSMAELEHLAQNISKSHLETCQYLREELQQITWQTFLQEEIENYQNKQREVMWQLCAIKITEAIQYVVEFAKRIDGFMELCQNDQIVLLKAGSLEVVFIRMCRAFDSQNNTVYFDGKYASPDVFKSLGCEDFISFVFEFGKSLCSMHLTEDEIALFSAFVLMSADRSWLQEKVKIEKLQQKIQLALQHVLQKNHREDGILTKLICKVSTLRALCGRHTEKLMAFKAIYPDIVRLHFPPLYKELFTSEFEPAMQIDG

[6] = target: T1, Nuclear receptor ROR-gamma; experiment: Inverse agonist activity at human N-terminal His6-tagged RORgamma (262 to 507 residues) expressed in Escherichia coli BL21 (DE3) assessed as inhibition of biotinylated co-activator SRC1-4 peptide recruitment by alphascreen assay
[7] = target: T6, Nuclear receptor ROR-beta (Homo sapiens, UniProt Q92753)
T6 sequence (Q92753 whole entry): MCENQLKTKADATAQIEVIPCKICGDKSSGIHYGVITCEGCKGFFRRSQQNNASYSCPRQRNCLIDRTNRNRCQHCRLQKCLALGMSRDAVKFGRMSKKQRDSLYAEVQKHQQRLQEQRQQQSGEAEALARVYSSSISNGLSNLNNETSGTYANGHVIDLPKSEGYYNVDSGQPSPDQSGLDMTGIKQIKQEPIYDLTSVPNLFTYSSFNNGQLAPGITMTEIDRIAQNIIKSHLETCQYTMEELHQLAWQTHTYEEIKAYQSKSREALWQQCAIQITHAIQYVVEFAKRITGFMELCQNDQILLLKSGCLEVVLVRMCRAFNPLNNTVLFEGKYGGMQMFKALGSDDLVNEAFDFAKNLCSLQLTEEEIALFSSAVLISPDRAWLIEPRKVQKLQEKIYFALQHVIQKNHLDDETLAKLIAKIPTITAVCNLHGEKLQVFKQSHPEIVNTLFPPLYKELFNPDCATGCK

[8] = rat, in vivo, iv, 2 mg/kg
Description: Apparent volume of distribution in Sprague-Dawley rat at 2 mg/kg, iv

in vivo [9] = conditions: Sprague-Dawley, rat, iv, 2 mg/kg
in vivo [10] = conditions: Sprague-Dawley, rat, po, 10 mg/kg
in vivo [11] = conditions: Sprague-Dawley, rat, iv, 2 mg/kg; remark: listed apart in the source
Description: Half life in Sprague-Dawley rat at 2 mg/kg, iv

in vivo [12] = conditions: Sprague-Dawley, rat, po, 10 mg/kg; remark: listed apart in the source
in vivo [13] = conditions: Sprague-Dawley, rat, iv, 2 mg/kg; remark: listed apart in the source
in vivo [14] = conditions: Sprague-Dawley, rat, po, 10 mg/kg; remark: listed apart in the source
in vivo [15] = conditions: Sprague-Dawley, rat, iv, 2 mg/kg; remark: listed apart in the source
in vivo [16] = conditions: Sprague-Dawley, rat, po, 10 mg/kg; remark: listed apart in the source
in vitro = conditions: rat, liver microsomes
Description: Stability in rat liver microsomes assessed as parent compound remaining at 10 uM measured after 60 mins by LC-MS/MS analysis

[17] = target: T2, Nuclear receptor ROR-gamma (Homo sapiens); experiment: Inverse agonist activity at Gal4-fused RORgamma LBD (unknown origin) expressed in 293T cells measured after 24 hrs by dual-luciferase reporter gene assay relative to control; format: cell-based
[18] = target: T5, Nuclear receptor ROR-alpha; remark: listed apart in the source
[19] = target: T7, Bile acid receptor (Homo sapiens) (UniProt Q96RI1); experiment: Inverse agonist activity at Gal4-fused FXR LBD (unknown origin) expressed in 293T cells measured after 24 hrs by dual-luciferase reporter gene assay relative to control; format: cell-based
T7 sequence (whole entry): T4 sequence (Q96RI1 whole entry)

Bile acid receptor [20] = target: T4, Bile acid receptor; remark: listed apart in the source
in vivo [21] = conditions: Sprague-Dawley, rat, iv, 2 mg/kg; remark: listed apart in the source
in vivo [22] = conditions: Sprague-Dawley, rat, po, 10 mg/kg; remark: listed apart in the source
Description: Half life in Sprague-Dawley rat at 10 mg/kg, po

in vivo [23] = conditions: Sprague-Dawley, rat, po, 10 mg/kg; remark: listed apart in the source

IC50 [1]	ΔTm [2]	Compound	further results
8720 nM	0 °C	NC(=O)c1ccc(CS(=O)(=O)Nc2ccc(-c3ccc(C(O)(C(F)(F)F)C(F)(F)F)cc3F)cc2)cc1	–
90 nM	8 °C	COC(=O)c1ccc(CS(=O)(=O)Nc2ccc(-c3ccc(C(O)(C(F)(F)F)C(F)(F)F)cc3F)cc2)cc1	IC50 [3]: Not Active; IC50 (Bile acid receptor [4]): Not Active; IC50 [5]: Not Active; IC50 [6]: 4830 nM; IC50 [7]: Not Active
1520 nM	5 °C	CC(=O)CCCC(=O)Nc1ccc(-c2ccc(C(O)(C(F)(F)F)C(F)(F)F)cc2F)cc1	–
7550 nM	0 °C	N#Cc1ccc(CS(=O)(=O)Nc2ccc(-c3ccc(C(O)(C(F)(F)F)C(F)(F)F)cc3F)cc2)cc1	–
–	1.5 °C	Nc1ccc(CC(=O)Nc2ccc(-c3ccc(C(O)(C(F)(F)F)C(F)(F)F)cc3F)cc2)cc1	–
–	0 °C	O=C(O)c1ccc(CS(=O)(=O)Nc2ccc(-c3ccc(C(O)(C(F)(F)F)C(F)(F)F)cc3F)cc2)cc1	Activity [17]: 23%
–	6 °C	O=C(Cc1ccc([N+](=O)[O-])cc1)Nc1ccc(-c2ccc(C(O)(C(F)(F)F)C(F)(F)F)cc2F)cc1	–
7660 nM	1 °C	O=[N+]([O-])c1ccccc1CS(=O)(=O)Nc1ccc(-c2ccc(C(O)(C(F)(F)F)C(F)(F)F)cc2F)cc1	–
4240 nM	4 °C	COC(=O)c1cccc(CS(=O)(=O)Nc2ccc(-c3ccc(C(O)(C(F)(F)F)C(F)(F)F)cc3F)cc2)c1	–
8050 nM	0 °C	CNC(=O)c1ccc(CS(=O)(=O)Nc2ccc(-c3ccc(C(O)(C(F)(F)F)C(F)(F)F)cc3F)cc2)cc1	–
1080 nM	6.5 °C	O=C(CCCC1CCCCC1)Nc1ccc(-c2ccc(C(O)(C(F)(F)F)C(F)(F)F)cc2F)cc1	–
820 nM	5.8 °C	CCCCCCC(=O)Nc1ccc(-c2ccc(C(O)(C(F)(F)F)C(F)(F)F)cc2F)cc1	IC50 [3]: Not Active; IC50 [18]: 1740 nM; %max [19]: 93%; IC50 [6]: 5310 nM; IC50 [7]: Not Active; IC50 (Bile acid receptor [20]): 1250 nM
2220 nM	1.5 °C	O=[N+]([O-])c1ccc(CS(=O)(=O)Nc2ccc(-c3ccc(C(O)(C(F)(F)F)C(F)(F)F)cc3F)cc2)cc1	–
930 nM	5.4 °C	COC(=O)CCCC(=O)Nc1ccc(-c2ccc(C(O)(C(F)(F)F)C(F)(F)F)cc2F)cc1	–
1980 nM	5.2 °C	O=C(CCc1ccccc1)Nc1ccc(-c2ccc(C(O)(C(F)(F)F)C(F)(F)F)cc2F)cc1	–
7760 nM	1 °C	CS(=O)(=O)c1ccc(CS(=O)(=O)Nc2ccc(-c3ccc(C(O)(C(F)(F)F)C(F)(F)F)cc3F)cc2)cc1	–
3080 nM	7.8 °C	O=C(CCC(F)(F)F)Nc1ccc(-c2ccc(C(O)(C(F)(F)F)C(F)(F)F)cc2F)cc1	–
1830 nM	5.9 °C	CCCCCC(=O)Nc1ccc(-c2ccc(C(O)(C(F)(F)F)C(F)(F)F)cc2F)cc1	–
2960 nM	2 °C	COC(=O)c1ccccc1CS(=O)(=O)Nc1ccc(-c2ccc(C(O)(C(F)(F)F)C(F)(F)F)cc2F)cc1	–
–	1.5 °C	Nc1ccccc1CC(=O)Nc1ccc(-c2ccc(C(O)(C(F)(F)F)C(F)(F)F)cc2F)cc1	–
460 nM	5.2 °C	COC(=O)CCC(=O)Nc1ccc(-c2ccc(C(O)(C(F)(F)F)C(F)(F)F)cc2F)cc1	–
1490 nM	3.5 °C	O=[N+]([O-])c1cccc(CS(=O)(=O)Nc2ccc(-c3ccc(C(O)(C(F)(F)F)C(F)(F)F)cc3F)cc2)c1	–

Compound	IC50 [1]	ΔTm [2]	further results
O=C(Cc1ccccc1[N+](=O)[O-])Nc1ccc(-c2ccc(C(O)(C(F)(F)F)C(F)(F)F)cc2F)cc1	–	4.2 °C	IC50 [3]: Not Active; Vz [8]: 3425 mg/kg; Cmax (in vivo [9]): 839 ng/mL; Tmax (in vivo [10]): 8 h; IC50 (Bile acid receptor [4]): Not Active; half-life (in vivo [11]): 7.67 h; Cmax (in vivo [12]): 721 ng/mL; AUC(0-inf) (in vivo [13]): 6440 ng·h/mL; AUC(0-t) (in vivo [14]): 3220 ng·h/mL; AUC(0-t) (in vivo [15]): 3340 ng·h/mL; bioavailability (in vivo [16]): 19%; IC50 [7]: Not Active; remaining at 1 h, 10 µM (in vitro): 79%
CS(=O)(=O)c1ccc(CC(=O)Nc2ccc(-c3ccc(C(O)(C(F)(F)F)C(F)(F)F)cc3F)cc2)cc1	–	7.8 °C	IC50 [3]: Not Active; Vz [8]: 3544 mg/kg; Cmax (in vivo [9]): 980 ng/mL; Tmax (in vivo [21]): 4.8 min; IC50 (Bile acid receptor [4]): Not Active; IC50 [5]: Not Active; half-life (in vivo [11]): 12.7 h; Cmax (in vivo [12]): 1420 ng/mL; AUC(0-inf) (in vivo [13]): 10400 ng·h/mL; AUC(0-t) (in vivo [14]): 21600 ng·h/mL; half-life (in vivo [22]): 8.67 h; AUC(0-t) (in vivo [15]): 7660 ng·h/mL; AUC(0-inf) (in vivo [23]): 24500 ng·h/mL; bioavailability (in vivo [16]): 52%; IC50 [7]: Not Active; remaining at 1 h, 10 µM (in vitro): 78%
CCCCC(=O)Nc1ccc(-c2ccc(C(O)(C(F)(F)F)C(F)(F)F)cc2F)cc1	–	6.3 °C	–
